In patent publication US12319967B2, “Methods and compositions for diagnosing and treating prostate cancer based on long noncoding RNA overlapping the LCK gene that regulates prostate cancer cell growth” (University of Virginia Patent Foundation, priority 2019, dated 2025):

Test system: LNCaP, C4-2, and Rv1 cells
Assay: CyQuant growth assay 7 days after viral transduction
Type: cell-based, human
Conditions: 0.05 nM R1881; LNCaP, C4-2, and Rv1 cells; day 7
From the text: FIG. 5A illustrates the gene structure of LCK and location of each shRNA targeting LCK. MISSION shRNAs targeting human LCK (NM_005356) and the pLKO vector control were purchased from ThermoFisher. Each shRNA was validated for efficiency of LCK or HULLK knockdown in Jurkat and PCa cells by qPCR. (C) The results of CyQuant Assay measuring DNA content as a surrogate for cell number 7 days after shRNA transduction is shown in FIG. 5C. Growth was compared to untreated empty vector control and the values were averaged across biological replicates. Error bars represent standard error of the mean. The relative effect of four independent shRNAs on cell growth in LNCaP, C42, and Rv1 cells in the absence or presence of 0.05 nM R1881, n=3. FIG. 5D plots the data for the relative effect of HULLK overexpression on cell growth in LNCaP, C42, and Rv1 cells in the absence or presence of 0.05 nM R1881, n=3. Statistical analysis was performed using ANOVA and Tukey test.
CyQuant Growth Assays: Assay was performed as previously described (18). Briefly, shRNA or pLKO control virus was added to 1 μg/ml fibronectin-coated 96 well plates. Cells were plated in RPMI-1640 plus 5% CSS with vehicle, 0-0.05 nM R1881, and/or 10 μM Enzalutamide (Selleck Chemicals). Quantification was performed on Day 7 using a BioTek Synergy 2 plate reader.
To explore the functional role of HULLK in PCa, the effects of HULLK knockdown on PCa cell growth was examined. LNCaP, C4-2, and Rv1 cells were transduced with lentiviral particles expressing four independent shRNAs specific for LCK or pLKO empty vector control in the presence or absence of 0.05 nM R1881. Two shRNAs were targeting the carboxy-terminal of LCK (shLCK-3 and shLCK-4) and should decrease HULLK levels; and two shRNAs were directed toward the amino-terminal (shLCK-1 and shLCK-2) and should not affect HULLK expression (FIG. 5A). […] As a control, all four shRNAs efficiently knocked LCK down 60-90% in Jurkat cells. Seven days following viral transduction, cellular growth was measured using CyQuant, which uses DNA content as a surrogate for cell number. In the absence of hormone, the four shRNAs had no dramatic effects on growth in LNCaP or C4-2 cells (FIG. 5C).
The complement experiment of evaluating the effects of overexpressing HULLK on cell growth was also performed. LNCaP, C4-2, and Rv1 cells were transduced with lentivirus expressing either vector or HULLK constructs in the presence or absence of 0.05 nM R1881, and proliferation was calculated seven days following viral transduction.

SMILES: C[C@]1(O)CC[C@H]2[C@@H]3CCC4=CC(=O)CCC4=C3C=C[C@@]21C [R1881]
- cell growth of vector-expressing control cells exposed to R1881: expected increase in cell growth
